The record followed here is patent publication US9751869B2, “LXR modulators” (BRISTOL-MYERS SQUIBB COMPANY, priority 2013, dated 2017).

SMILES strings stand for the structures. pEC50: −log10 of the molar value.

The target of this assay is T1, LXRβ (Homo sapiens, UniProt P55055).
T1 construct: Co-transfection expression plasmids, comprising full-length LXRα (pCMX-h LXRα or LXRβ (pCMX-hLXRβ)); expressed in transfected cells; host or cells: CV-1 African green monkey kidney cells, transient transfection with pCMX-hLXRβ
T1 sequence (P55055 1-460): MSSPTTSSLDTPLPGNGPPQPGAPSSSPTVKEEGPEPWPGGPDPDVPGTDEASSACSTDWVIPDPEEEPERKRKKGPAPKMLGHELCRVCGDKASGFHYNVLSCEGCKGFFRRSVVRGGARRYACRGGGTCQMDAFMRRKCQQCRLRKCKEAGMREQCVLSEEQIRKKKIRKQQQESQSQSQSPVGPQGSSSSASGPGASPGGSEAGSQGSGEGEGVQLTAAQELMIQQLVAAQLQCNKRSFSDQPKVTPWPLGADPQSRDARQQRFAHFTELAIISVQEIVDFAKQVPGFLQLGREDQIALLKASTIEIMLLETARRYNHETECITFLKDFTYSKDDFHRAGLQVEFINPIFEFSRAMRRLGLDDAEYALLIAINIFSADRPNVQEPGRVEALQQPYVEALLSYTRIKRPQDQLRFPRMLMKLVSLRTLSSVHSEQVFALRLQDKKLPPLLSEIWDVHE
T1 sequence (P19793 1-462 partner): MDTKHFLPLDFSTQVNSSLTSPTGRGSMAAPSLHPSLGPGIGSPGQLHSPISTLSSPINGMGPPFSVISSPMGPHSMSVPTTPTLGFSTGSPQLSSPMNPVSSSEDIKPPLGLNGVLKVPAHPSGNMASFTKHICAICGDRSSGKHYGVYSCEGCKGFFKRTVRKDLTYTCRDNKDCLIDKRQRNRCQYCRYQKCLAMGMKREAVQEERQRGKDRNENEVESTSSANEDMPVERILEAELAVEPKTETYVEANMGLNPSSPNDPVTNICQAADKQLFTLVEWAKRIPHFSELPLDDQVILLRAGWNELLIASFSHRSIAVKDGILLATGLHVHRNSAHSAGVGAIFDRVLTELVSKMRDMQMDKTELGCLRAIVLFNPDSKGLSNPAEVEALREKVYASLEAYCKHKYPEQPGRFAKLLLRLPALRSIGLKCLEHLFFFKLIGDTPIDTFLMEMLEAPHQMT
As to the kind of experiment: LXR/LXRE co-transfection assay (luciferase reporter) in CV-1 cells, LXRβ. It is filed as cell-based. The settings on record: for pEC50: CV-1 cells transfected with pCMX-hLXRβ and LXREx1-Tk-Luciferase, 20 hours incubation, read-out: LXRbeta agonism EC50; for Emax: read-out: LXRbeta % EFFICACY
In short, it runs like this:
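CV-1 cells transiently co-transfected with full-length human LXRβ, LXRE-Tk-luciferase reporter and β-galactosidase control, then exposed to compound (≤0.5% DMSO) for 20 h at 37 °C before luminescence read. EC50 from 10-point, half-log dose curves; efficacy relative to the sulfonamide high control, means of 2–3 experiments.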
A general note: In a reporter assay the amount or activity of a reporter protein is the signal.

[1] abbreviates: CV-1 cells, relative to maximum response of high control N-(3-((4-fluorophenyl)-(naphthalene-2-sulfonyl)amino)propyl)-2,2-dimethylpropionamide.

For the compound `Cc1nc(-c2cc(-c3cc(F)c(CO)c(S(C)(=O)=O)c3)ccc2-c2cc(C(C)(C)CO)nn2C)c(-c2ccc3c(c2)OC(F)(F)O3)o1` [Example 62, 2-(5-(3-(5-(2,2-difluorobenzo[d][1,3]dioxol-5-yl)-2-methyloxazol-4-yl)-3′-fluoro-4′-(hydroxymethyl)-5′-(methylsulfonyl)biphenyl-4-yl)-1-methyl-1H-pyrazol-3-yl)-2-methylpropan-1-ol], the pEC50 is 7.52. For the same compound, the Emax under setting [1] came out at 72%.

Take `Cc1nc(-c2cc(-c3cc(F)c(CO)c(S(C)(=O)=O)c3)ccc2-c2cc(C(C)(C)C(N)=O)nn2C)c(-c2ccc3c(c2)OC(F)(F)O3)o1` [Example 63, 2-(5-(3-(5-(2,2-difluorobenzo[d][1,3]dioxol-5-yl)-2-methyloxazol-4-yl)-3′-fluoro-4′-(hydroxymethyl)-5′-(methylsulfonyl)biphenyl-4-yl)-1-methyl-1H-pyrazol-3-yl)-2-methylpropanamide]: the pEC50 is 7.26. Also, the Emax under setting [1] turned out to be 33%.

Turning to `Cc1nc(-c2cc(-c3cc(F)c(CO)c(S(C)(=O)=O)c3)ccc2-c2cc(C(C)(C)C(C)(C)O)nn2C)c(-c2ccc3c(c2)OC(F)(F)O3)o1` [Example 64, 3-(5-(3-(5-(2,2-difluorobenzo[d][1,3]dioxol-5-yl)-2-methyloxazol-4-yl)-3′-fluoro-4′-(hydroxymethyl)-5′-(methylsulfonyl)biphenyl-4-yl)-1-methyl-1H-pyrazol-3-yl)-2,3-dimethylbutan-2-ol], the pEC50 is 7.62. In addition, under setting [1], the Emax is 42%.

On to `Cc1nc(-c2ccc3c(c2)OC(F)(F)O3)c(-c2cc(-c3cc(F)c(CO)c(S(C)(=O)=O)c3)ccc2-c2cc(C(C)(C)C(N)=O)nn2C)o1` [Example 65, 2-(5-(3-(4-(2,2-difluorobenzo[d][1,3]dioxol-5-yl)-2-methyloxazol-5-yl)-3′-fluoro-4′-(hydroxymethyl)-5′-(methylsulfonyl)biphenyl-4-yl)-1-methyl-1H-pyrazol-3-yl)-2-methylpropanamide], for which the pEC50 is 7.17. For the same compound, under setting [1], the Emax came to 55%.

As to `Cc1nc(-c2ccc3c(c2)OC(F)(F)O3)c(-c2cc(-c3cc(F)c(CO)c(S(C)(=O)=O)c3)ccc2-c2cc(C(C)(C)C(C)(C)O)nn2C)o1` [Example 66, 3-(5-(3-(4-(2,2-difluorobenzo[d][1,3]dioxol-5-yl)-2-methyloxazol-5-yl)-3′-fluoro-4′-(hydroxymethyl)-5′-(methylsulfonyl)biphenyl-4-yl)-1-methyl-1H-pyrazol-3-yl)-2,3-dimethylbutan-2-ol], the pEC50 was 7.57. Further, the Emax under setting [1] was found to be 27%.

For `Cc1nc(-c2ccc3c(c2)OC(F)(F)O3)c(-c2cc(-c3cc(F)c(CO)c(S(C)(=O)=O)c3)ccc2-c2cc(C(C)(C)C#N)nn2C)o1` [Example 67, 2-(5-(3-(4-(2,2-difluorobenzo[d][1,3]dioxol-5-yl)-2-methyloxazol-5-yl)-3′-fluoro-4′-(hydroxymethyl)-5′-(methylsulfonyl)biphenyl-4-yl)-1-methyl-1H-pyrazol-3-yl)-2-methylpropanenitrile], the pEC50 was 7.62. The “LXRbeta % EFFICACY” value under setting [1] was 79%.

For `Cc1nc(-c2ccc3c(c2)OC(F)(F)O3)c(-c2cc(-c3cc(F)c(CO)c(S(C)(=O)=O)c3)ccc2-c2cc(C(C)(C)c3nnco3)nn2C)o1` [Example 68, (4′-(3-(2-(1,3,4-oxadiazol-2-yl)propan-2-yl)-1-methyl-1H-pyrazol-5-yl)-3′-(4-(2,2-difluorobenzo[d][1,3]dioxol-5-yl)-2-methyloxazol-5-yl)-3-fluoro-5-(methylsulfonyl)biphenyl-4-yl)methanol], the negative logarithm of the EC50 (pEC50) was 7.54. Besides, the Emax under setting [1] stood at 51%.

Consider `Cc1nc(-c2ccc3c(c2)OC(F)(F)O3)c(-c2cc(-c3cc(F)c(CO)c(S(C)(=O)=O)c3)ccc2-c2cc(CS(=O)(=O)N(C)C)nn2C)o1` [Example 69, 1-(5-(3-(4-(2,2-difluorobenzo[d][1,3]dioxol-5-yl)-2-methyloxazol-5-yl)-3′-fluoro-4′-(hydroxymethyl)-5′-(methylsulfonyl)-[1,1′-biphenyl]-4-yl)-1-methyl-1H-pyrazol-3-yl)-N,N-dimethylmethanesulfonamide], for which the pEC50 was 6.80. Also, the Emax under setting [1] was found to be 24%.

Turning to `Cc1nc(-c2ccc(OC(F)(F)F)cc2)c(-c2cc(-c3cc(F)c(CO)c(S(C)(=O)=O)c3)ccc2-c2cc(C(F)(F)C(N)=O)nn2C)o1` [Example 70, 2,2-difluoro-2-(5-(3′-fluoro-4′-(hydroxymethyl)-3-(2-methyl-4-(4-(trifluoromethoxy)phenyl)oxazol-5-yl)-5′-(methylsulfonyl)biphenyl-4-yl)-1-methyl-1H-pyrazol-3-yl)acetamide], the pEC50 was 6.50. The Emax under setting [1] was 42%.

For `Cc1nc(-c2ccc(OC(F)F)c(F)c2)c(-c2cc(-c3cc(F)c(CO)c(S(C)(=O)=O)c3)ccc2-c2cc(C(F)(F)C(N)=O)nn2C)o1` [Example 71, 2-(5-(3-(4-(4-(difluoromethoxy)-3-fluorophenyl)-2-methyloxazol-5-yl)-fluoro-4′-(hydroxymethyl)-5′-(methylsulfonyl)biphenyl-4-yl)-1-methyl-1H-pyrazol-3-yl)-2,2-difluoroacetamide], the pEC50 is 7.33. Besides, the Emax under setting [1] was 52%.

Regarding `Cc1nc(-c2ccc(OC(F)F)c(F)c2)c(-c2cc(-c3cccc(S(C)(=O)=O)c3)ccc2-c2cc(C(F)(F)C(N)=O)nn2C)o1` [Example 72, 2-(5-(3-(4-(4-(difluoromethoxy)-3-fluorophenyl)-2-methyloxazol-5-yl)-3′-(methylsulfonyl)biphenyl-4-yl)-1-methyl-1H-pyrazol-3-yl)-2,2-difluoroacetamide], the pEC50 is 7.14. Besides, the Emax under setting [1] turned out to be 60%.

`Cc1nc(-c2ccc3c(c2)OC(F)(F)O3)c(-c2cc(-c3cccc(S(C)(=O)=O)c3)ccc2-c2cc(C(F)(F)C(N)=O)nn2C)o1` [Example 73, 2-(5-(3-(4-(2,2-difluorobenzo[d][1,3]dioxol-5-yl)-2-methyloxazol-5-yl)-3′-(methylsulfonyl)biphenyl-4-yl)-1-methyl-1H-pyrazol-3-yl)-2,2-difluoroacetamide]: the pEC50 is 7.38. Moreover, the Emax under setting [1] is 55%.

On to `Cc1nc(-c2ccc3c(c2)OC(F)(F)O3)c(-c2cc(-c3cc(F)c(CO)c(S(C)(=O)=O)c3)ccc2-c2cc(C(F)(F)C(N)=O)nn2C)o1` [Example 74, 2-(5-(3-(4-(2,2-difluorobenzo[d][1,3]dioxol-5-yl)-2-methyloxazol-5-yl)-3′-fluoro-4′-(hydroxymethyl)-5′-(methylsulfonyl)biphenyl-4-yl)-1-methyl-1H-pyrazol-3-yl)-2,2-difluoroacetamide], for which the negative-log EC50 (pEC50) was 7.04. Besides, the Emax under setting [1] is 60%.

With `Cc1nc(-c2ccc3c(c2)OC(F)(F)O3)c(-c2cc(-c3cc(F)c(CO)c(S(C)(=O)=O)c3)ccc2-c2cc(C(F)(F)C(=O)O)nn2C)o1` [Example 75, 2-(5-(3-(4-(2,2-difluorobenzo[d][1,3]dioxol-5-yl)-2-methyloxazol-5-yl)-3′-fluoro-4′-(hydroxymethyl)-5′-(methylsulfonyl)biphenyl-4-yl)-1-methyl-1H-pyrazol-3-yl)-2,2-difluoroacetic acid], the pEC50 is 5.12. Under setting [1], the Emax turned out to be 52%.

For `Cc1nc(-c2ccc(OC(F)F)c(F)c2)c(-c2cc(-c3cccc(S(C)(=O)=O)c3)ccc2-c2cc(C(F)(F)CO)nn2C)o1` [Example 76, 2-(5-(3-(4-(4-(difluoromethoxy)-3-fluorophenyl)-2-methyloxazol-5-yl)-3′-(methylsulfonyl)biphenyl-4-yl)-1-methyl-1H-pyrazol-3-yl)-2,2-difluoroethanol], the pEC50 is 7.08. Besides, the Emax under setting [1] was 88%.

For `Cc1nc(-c2ccc(OC(F)F)c(F)c2)c(-c2cc(-c3cc(F)c(CO)c(S(C)(=O)=O)c3)ccc2-c2cc(C(F)(F)CO)nn2C)o1` [Example 77, 2-(5-(3-(4-(4-(difluoromethoxy)-3-fluorophenyl)-2-methyloxazol-5-yl)-3′-fluoro-4′-(hydroxymethyl)-5′-(methylsulfonyl)biphenyl-4-yl)-1-methyl-1H-pyrazol-3-yl)-2,2-difluoroethanol], the pEC50 is 7.52. The Emax under setting [1] was determined as 86%.

The pEC50 is −log10 of the EC50, conventionally taken in molar units.
